# Test results from PMC9583845, “Characterization of the chicken melanocortin 5 receptor and its potential role in regulating hepatic glucolipid metabolism” (Frontiers in Physiology, 2022).
# Assays:
# [1] = system: FASN mRNA, primary chicken hepatocytes; test: FASN mRNA in primary chicken hepatocytes, RT-qPCR; assay type: cell-based; settings: 0.1–100 nM, 6 h, N = 4, Figure 8H, listed as not decreased
# Experimental: (§1) To evaluate the effect of ACTH1-39 on chicken liver, the chicken hepatocytes were prepared and maintained as a monolayer culture. Briefly, one-month-old male chicken hepatocytes were isolated by perfusion of a liver with Ca^2+-free KRB buffer to remove blood cells, and being digested with 0.25% collagenase-I for 10 min. Hepatocytes were obtained following filtering and washing using M199 medium. Then the hepatocytes were plated in a Corning CellBIND 48-well microplate (Corning, NY, cat. no.3338) with M199 medium containing 100 U/ml penicillin and […] streptomycin (Gibco), 5 μg/ml bovine insulin (Sigma), and 5% FBS at 37°C in a 5% CO2 atmosphere. To adhere to the wall, the cells were incubated on the 48-well plate for 4 h.
# (§2) For quantitative real-time PCR, primary cultured chicken hepatocytes were treated with various concentrations of ACTH1-39 (or other composition) at 37°C for 6 h. The relative amount of mRNA was calculated using the comparative Ct method. Chicken β-actin gene was used as the reference gene. Amplification of specific transcripts was confirmed by analyzing the melting curve profile performed at the end of each run and by determining the size of the PCR products using agarose electrophoresis and ethidium bromide staining.
# chicken MC4R = system: chicken MC4R; parameters: method as in Zhang et al., 2017; Thomas et al., 2018; settings: ref Zhang et al., 2017; Thomas et al., 2018; cited from earlier work
# [2] = system: THRSPA mRNA, primary chicken hepatocytes; test: THRSPA mRNA in primary chicken hepatocytes, RT-qPCR; assay type: cell-based; settings: 6 h, N = 4, Figures 8D-F
# Experimental: as §1, §2
# chicken MC5R + MRAP2 = chicken MC5R + MRAP2 (Gallus gallus, UniProt O73671); test: pGL3-CRE-luciferase reporter assay, CHO cells co-expressing MC5R and cMRAP2; assay type: cell-based; settings: for effect of MRAP2 co-expression on sensitivity of MC5R: vs MC5R expressed alone
# chicken MC5R + MRAP2, sequence (O73671 1-325): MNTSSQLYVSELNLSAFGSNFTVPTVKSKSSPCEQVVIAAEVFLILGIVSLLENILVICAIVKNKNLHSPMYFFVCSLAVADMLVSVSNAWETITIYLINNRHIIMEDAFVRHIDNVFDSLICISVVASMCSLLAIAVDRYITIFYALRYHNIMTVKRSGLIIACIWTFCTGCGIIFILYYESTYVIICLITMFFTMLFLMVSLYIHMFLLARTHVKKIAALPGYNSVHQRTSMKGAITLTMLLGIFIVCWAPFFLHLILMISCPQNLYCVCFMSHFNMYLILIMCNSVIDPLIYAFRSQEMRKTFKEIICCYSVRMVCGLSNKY
# chicken MC5R + MRAP2, sequence (A0A140B2F4 1-206 partner): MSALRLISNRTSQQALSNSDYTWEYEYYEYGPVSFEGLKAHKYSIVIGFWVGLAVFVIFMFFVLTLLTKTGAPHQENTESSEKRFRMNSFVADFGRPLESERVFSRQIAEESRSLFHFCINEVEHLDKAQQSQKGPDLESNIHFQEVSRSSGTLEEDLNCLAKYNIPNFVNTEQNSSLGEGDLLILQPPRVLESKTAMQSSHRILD
# Experimental: (§3) The expression plasmids encoding MC5R, MRAP1 and MRAP2 were established by cloning their entire open reading frame (ORF) into the pcDNA3.1 (+) expression vector (Invitrogen).
# (§4) The cells were then transfected with a mixture containing 700 ng pGL3-CRE-Luciferase reporter construct, 200 ng of receptor expression plasmid (or empty pcDNA3.1 vector as a negative control), 20 ng of pRL-TK construct (containing a Renilla luciferase gene, used as an internal control), and 2 μl jetPRIME transfection reagent (Polyplus Transfection, Illkirch, France) in 200 μL buffer. […] After removal of the medium from the 96-well plate, the cells were treated with 100 μl ligand-containing medium (or ligand-free medium) for 6 h. Finally, CHO cells were lysed with 1 × passive lysis buffer for luciferase assay (Promega) and the luciferase activity of the cell lysate was measured by a Multimode Microplate Reader (TriStar LB941, EG&G Berthold, Germany) according to the manufacturer’s instruction.
# (§5) All statistical analysis was performed using GraphPad Prism 9 (Graph Pad Software Inc., San Diego, CA). The dose-response curves were constructed using nonlinear regression models. Student’s test was used to compare two groups, for more than two groups one-way ANOVA was performed followed by Dunnett’s test. To validate our results, all in-vitro experiments were repeated three times, and representative data are reported.
# [3] = system: CREB phosphorylation (cMC5R); test: CREB phosphorylation, western blot, CHO cells expressing cMC5R; assay type: cell-based, chicken; settings: 10 nM, 10 min; p-CREB normalized by total CREB; three independent experiments; Figure 2D
# Experimental: To investigate whether the activation of cMC5R can enhance CREB phosphorylation, 100 ng of cMC5R expression plasmid, or an empty pcDNA3.1 (+) vector, was transfected into CHO cells cultured in a 24-well plate (Nunc) using jetPRIME transfection reagent (Polyplus Transfection). After 24 h transfection, ACTH (10 nM) or α-MSH (10 nM) was added to treat the cells for 10 min. Then the whole-cell lysates were used to examine the level of phosphorylated CREB using western blot. The level of total CREB protein was also examined and used as internal controls in each experiment. The phosphorylated CREB (p-CREB) and total CREB levels were quantified by densitometric analysis with ImageJ software. Relative optical densities of p-CREB normalized by CREB levels compared to the densities in the absence of ACTH (or α-MSH) are shown as relative p-CREB/CREB expression (fold changes).
# chicken MC5R + MRAP1 = chicken MC5R + MRAP1 (Gallus gallus, UniProt O73671); test: pGL3-CRE-luciferase reporter assay, CHO cells co-expressing MC5R and cMRAP1; assay type: cell-based; settings: for effect of MRAP1 co-expression on sensitivity of MC5R: vs MC5R expressed alone
# chicken MC5R + MRAP1, sequence (O73671 1-325): as the sequence (O73671 1-325) above
# Experimental: as §3, §4, §5
# [4] = system: ELOVL6 mRNA, primary chicken hepatocytes; test: ELOVL6 mRNA in primary chicken hepatocytes, RT-qPCR; assay type: cell-based; settings: 6 h, N = 4, Figures 8A-C
# Experimental: as §1, §2
# chicken MC5R = chicken MC5R (Gallus gallus, UniProt O73671); test: pGL3-CRE-luciferase reporter assay, CHO cells expressing chicken MC5R; assay type: cell-based; settings: for ability to activate / sensitivity of cMC5R (in words, ranking): CHO cells expressing cMC5R
# chicken MC5R, sequence (O73671 1-325): as above
# Description: All chemicals were purchased from Sigma-Aldrich (St. Louis, MO, United States) and the restriction enzymes were obtained from TaKaRa (Dalian, China). […] All primers used in this study were synthesized by Beijing Genome Institute (BGI, China) and listed in Supplementary Table 1.
# as §3, §4, §5
# [5] = system: ACACA mRNA, primary chicken hepatocytes; test: ACACA mRNA in primary chicken hepatocytes, RT-qPCR; assay type: cell-based; settings: 0.1–100 nM, 6 h, N = 4, Figure 8G, listed as not decreased
# Experimental: as §1, §2
# [6] = system: primary chicken hepatocytes; test: Glucose production from primary cultured chicken hepatocytes; assay type: cell-based; settings: for glucose production (in words): primary chicken hepatocytes, 100 nM for 30 or 60 min, or 0.1–100 nM for 60 min, gluconeogenic substrates 20 mM lactate, 2 mM pyruvate, four independent experiments, Figures 7A,B
# Experimental: as §1
# Glucose production from primary cultured chicken hepatocytes was measured as previously described ([Collins et al., 2006]). Briefly, cells were washed three times with warm phosphate-buffered saline (PBS) to remove glucose, followed by treatment with 100 nM (or different concentration gradients) chicken ATCH1-39 for 30 min or 60 min in glucose-free medium containing gluconeogenic substrates (20 mM sodium lactate and 2 mM sodium pyruvate). Glucose concentration was determined with a glucose assay kit (Applygen, Beijing, China, catalog no. E1011). Briefly, the 5 µl medium was added into 195 µl reagent and incubated for 20 min at 37°C. Absorbance in 550 nm was measured in a standard glucose solution.
substance,measurement,setting,value
H-SYSMEHFRWGKPVGRKRRPIKVYPNGVDEESAESYPMEF-OH [ACTH1-39],FASN mRNA expression,[1],"instead of ACACA, FASN and SCD"
same,activation of chicken MC4R,chicken MC4R,activated by both α-MSH and ACTH
same,THRSPA mRNA expression,[2],dose-dependently decreased
same,EC50,"chicken MC5R + MRAP2; Table 1 / Figure 3, co-expressed with cMRAP2, 6 h, pGL3-CRE-luciferase, mean ± SEM of at least three independent experiments (figure: four replicates), ^a: significantly different from the parameter of MC5R, p < 0.01",3.19 ± 1.09 nM
same,effect of MRAP2 co-expression on sensitivity of MC5R,chicken MC5R + MRAP2; α-MSH p < 0.01,did not affect the sensitivity of cMC5R to ACTH1-39
same,effect of MRAP2 co-expression on sensitivity of MC5R,"chicken MC5R + MRAP2; α-MSH p < 0.01, listed as ACTH",no effect on the sensitivity of chicken MC5R for ACTH
same,CREB phosphorylation,[3],significantly increased
same,EC50,"chicken MC5R + MRAP1; Table 1 / Figure 3, co-expressed with cMRAP1, 6 h, pGL3-CRE-luciferase, mean ± SEM of at least three independent experiments (figure: four replicates)",2.12 ± 0.37 nM
same,effect of MRAP1 co-expression on sensitivity of MC5R,chicken MC5R + MRAP1,did not affect the sensitivity of cMC5R to ACTH1-39
same,effect of MRAP1 co-expression on sensitivity of MC5R,chicken MC5R + MRAP1; listed as ACTH,no effect on the sensitivity of chicken MC5R for ACTH
same,ELOVL6 mRNA expression,[4],dose-dependently decreased
same,"ability to activate / sensitivity of cMC5R (in words, ranking)",chicken MC5R,ACTH1-39 ≈ α-MSH > β-MSH > γ-MSH
same,"ability to activate / sensitivity of cMC5R (in words, ranking)",chicken MC5R; listed as ACTH,highest potency to activate cMC5R
same,EC50,"chicken MC5R; Table 1 / Figure 3, CHO cells, MC5R alone, 6 h, mean ± SEM of at least three independent experiments (figure: four replicates), read-out: EC50, MC5R expressed alone",5.91 ± 1.18 nM
same,ACACA mRNA expression,[5],"instead of ACACA, FASN and SCD"
same,time from which glucose production significantly increased,"[6]; 100 nM ACTH, 30 and 60 min, Figure 7A",≥ 0.5 h
same,dose from which glucose production significantly increased,"[6]; 0.1–100 nM ACTH, 60 min, Figure 7B",≥ 1 nM
same,glucose production (in words),[6],enhanced glucose production
same,glucose production (in words),[6]; listed as ACTH,induction of gluconeogenesis
same,glucose production (in words),[6]; listed as cACTH1-39,significantly increased the level of glucose production
